# Data taken from US20170190671A1, “BIS(ARYL)CATECHOL DERIVATIVES AS HERBICIDES” (E I DU PONT DE NEMOURS AND COMPANY, priority 2014, published 2017).
# Key:
# [1] = tested on: pigweed (Amaranthus retroflexus); experiment: Test C preemergence; assay type: in vivo; settings: Amaranthus retroflexus, pre-emergence, 336 h, scale 0 to 100, read-out: Plant response rating, Pigweed
# Procedure, shortened: (§1)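 Treatment is preemergence to seeds in a loam and sand soil, or postemergence to plants 2 to 18 cm high in a peat moss-based medium. The compound is delivered in a non-phytotoxic solvent mixture including surfactant. Effects are judged by eye 13 to 15 days later on a 0 to 100 scale.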
# [2] = tested on: lambsquarters (Chenopodium album); experiment: Test C preemergence; assay type: in vivo; settings: Chenopodium album, pre-emergence, 336 h, scale 0 to 100, read-out: Plant response rating, Lambsquarters
# Procedure, shortened: as §1
# [3] = tested on: galium (catchweed bedstraw, Galium aparine); experiment: Test C preemergence; assay type: in vivo; settings: Galium, pre-emergence, 336 h, scale 0 to 100, read-out: Plant response rating, Galium
# Procedure, shortened: as §1
# [4] = tested on: velvetleaf (Abutilon theophrasti); experiment: Test C preemergence; assay type: in vivo; settings: Abutilon theophrasti, pre-emergence, scale 0 to 100, read-out: Plant response rating, Velvetleaf
# Procedure, shortened: as §1
# [5] = tested on: large (Lg) crabgrass (Digitaria sanguinalis); experiment: Test C preemergence; assay type: in vivo; settings: Digitaria sanguinalis, pre-emergence, 336 h, scale 0 to 100, read-out: Plant response rating, Crabgrass, Large
# Procedure, shortened: as §1
# [6] = tested on: oilseed rape (Brassica napus); experiment: Test C preemergence; assay type: in vivo; settings: Brassica napus, pre-emergence, scale 0 to 100, read-out: Plant response rating, Oilseed Rape
# Procedure, shortened: as §1
# [7] = tested on: blackgrass (Alopecurus myosuroides); experiment: Test C preemergence; assay type: in vivo; settings: Alopecurus myosuroides, pre-emergence, 336 h, scale 0 to 100, read-out: Plant response rating, Blackgrass
# Procedure, shortened: as §1
# [8] = tested on: morningglory (Ipomoea coccinea); experiment: Test C preemergence; assay type: in vivo; settings: Ipomoea, pre-emergence, 336 h, scale 0 to 100, read-out: Plant response rating, Morningglory
# Procedure, shortened: as §1
# [9] = tested on: winter wheat (Triticum aestivum); experiment: Test C preemergence; assay type: in vivo; settings: Triticum aestivum, pre-emergence, 336 h, scale 0 to 100, read-out: Plant response rating, Wheat
# Procedure, shortened: as §1
# [10] = tested on: yellow nutsedge (Cyperus esculentus); experiment: Test C preemergence; assay type: in vivo; settings: Cyperus, pre-emergence, 336 h, scale 0 to 100, read-out: Plant response rating, Nutsedge, Yellow
# Procedure, shortened: as §1
# [11] = tested on: barnyardgrass (Echinochloa crus-galli); experiment: Test C preemergence; assay type: in vivo; settings: Echinochloa crus-galli, pre-emergence, read-out: Plant response rating, Barnyardgrass
# Procedure, shortened: as §1
# soybean (Glycine max) = experiment: Test C preemergence; assay type: in vivo; settings: Glycine max, pre-emergence, scale 0 to 100, read-out: Plant response rating, Soybean
# Procedure, shortened: as §1
# [12] = tested on: giant foxtail (Setaria faberii); experiment: Test C preemergence; assay type: in vivo; settings: Setaria faberi, pre-emergence, 336 h, scale 0 to 100, read-out: Plant response rating, Foxtail, Giant
# Procedure, shortened: as §1
# [13] = tested on: ragweed (common ragweed, Ambrosia elatior); experiment: Test C preemergence; assay type: in vivo; settings: Ambrosia artemisiifolia, pre-emergence, 336 h, scale 0 to 100, read-out: Plant response rating, Ragweed
# Procedure, shortened: as §1
# corn (Zea mays) = experiment: Test C preemergence; assay type: in vivo; settings: Zea mays, pre-emergence, 336 h, scale 0 to 100
# Procedure, shortened: as §1
# [14] = tested on: johnsongrass (Sorghum halepense); experiment: Test C preemergence; assay type: in vivo; settings: Sorghum halepense, pre-emergence, 336 h, scale 0 to 100, read-out: Plant response rating, Johnsongrass
# Procedure, shortened: as §1
# kochia (Kochia scoparia) = experiment: Test C postemergence; assay type: in vivo; settings: Bassia scoparia, post-emergence, Postemergence, scale 0 to 100, read-out: Plant response rating, Kochia
# Procedure, shortened: as §1
# [15] = tested on: galium (catchweed bedstraw, Galium aparine); experiment: Test C postemergence; assay type: in vivo; settings: Galium, post-emergence, 336 h, Postemergence, scale 0 to 100, read-out: Plant response rating, Galium
# Procedure, shortened: as §1
# [16] = tested on: velvetleaf (Abutilon theophrasti); experiment: Test C postemergence; assay type: in vivo; settings: Abutilon theophrasti, post-emergence, Postemergence, scale 0 to 100, read-out: Plant response rating, Velvetleaf
# Procedure, shortened: as §1
# [17] = tested on: large (Lg) crabgrass (Digitaria sanguinalis); experiment: Test C postemergence; assay type: in vivo; settings: Digitaria sanguinalis, post-emergence, 336 h, Postemergence, scale 0 to 100, read-out: Plant response rating, Crabgrass, Large
# Procedure, shortened: as §1
# [18] = tested on: morningglory (Ipomoea coccinea); experiment: Test C postemergence; assay type: in vivo; settings: Ipomoea, post-emergence, 336 h, Postemergence, scale 0 to 100, read-out: Plant response rating, Morningglory
# Procedure, shortened: as §1
# [19] = tested on: winter wheat (Triticum aestivum); experiment: Test C postemergence; assay type: in vivo; settings: Triticum aestivum, post-emergence, 336 h, Postemergence, scale 0 to 100, read-out: Plant response rating, Wheat
# Procedure, shortened: as §1
smiles,measurement,setting,value
"N#Cc1cccc(Oc2ncc(C(F)(F)F)cn2)c1Oc1ncc(Cl)cn1 [Compound 39, 2-[(5-chloro-2-pyrimidinyl)oxy]-3-[[5-(trifluoromethyl)-2-pyrimidinyl]oxy]-benzonitrile]",melting point,,109 to 112 °C
same,pest or weed control at 31 g/ha,"[1]; 31 g ai/ha, preemergence",98%
same,pest or weed control at 62 g/ha,"[1]; 62 g ai/ha, preemergence",100%
same,pest or weed control at 125 g/ha,"[1]; 125 g ai/ha, preemergence",100%
same,pest or weed control at 16 g/ha,"[1]; Preemergence, 16 g ai/ha",100%
same,pest or weed control at 31 g/ha,"[2]; 31 g ai/ha, preemergence",90%
same,pest or weed control at 62 g/ha,"[2]; 62 g ai/ha, preemergence",98%
same,pest or weed control at 125 g/ha,"[2]; 125 g ai/ha, preemergence",95%
same,pest or weed control at 16 g/ha,"[2]; Preemergence, 16 g ai/ha",60%
same,pest or weed control at 31 g/ha,"[3]; 31 g ai/ha, preemergence",90%
same,pest or weed control at 62 g/ha,"[3]; 62 g ai/ha, preemergence",85%
same,pest or weed control at 125 g/ha,"[3]; 125 g ai/ha, preemergence",100%
same,pest or weed control at 16 g/ha,"[3]; Preemergence, 16 g ai/ha",85%
same,pest or weed control at 31 g/ha,"[4]; 31 g ai/ha, preemergence",75%
same,pest or weed control at 62 g/ha,"[4]; 62 g ai/ha, preemergence",100%
same,pest or weed control at 125 g/ha,"[4]; 125 g ai/ha, preemergence",100%
same,pest or weed control at 16 g/ha,"[4]; Preemergence, 16 g ai/ha",40%
same,pest or weed control at 31 g/ha,"[5]; 31 g ai/ha, preemergence",100%
same,pest or weed control at 62 g/ha,"[5]; 62 g ai/ha, preemergence",100%
same,pest or weed control at 125 g/ha,"[5]; 125 g ai/ha, preemergence",100%
same,pest or weed control at 16 g/ha,"[5]; Preemergence, 16 g ai/ha",100%
same,plant injury at 31 g/ha,"[6]; 31 g ai/ha, preemergence",90%
same,plant injury at 62 g/ha,"[6]; 62 g ai/ha, preemergence",100%
same,plant injury at 125 g/ha,"[6]; 125 g ai/ha, preemergence",100%
same,plant injury at 16 g/ha,"[6]; Preemergence, 16 g ai/ha",80%
same,pest or weed control at 31 g/ha,"[7]; 31 g ai/ha, preemergence",50%
same,pest or weed control at 62 g/ha,"[7]; 62 g ai/ha, preemergence",90%
same,pest or weed control at 125 g/ha,"[7]; 125 g ai/ha, preemergence",90%
same,pest or weed control at 16 g/ha,"[7]; Preemergence, 16 g ai/ha",0%
same,pest or weed control at 31 g/ha,"[8]; 31 g ai/ha, preemergence",80%
same,pest or weed control at 62 g/ha,"[8]; 62 g ai/ha, preemergence",98%
same,pest or weed control at 125 g/ha,"[8]; 125 g ai/ha, preemergence",100%
same,pest or weed control at 16 g/ha,"[8]; Preemergence, 16 g ai/ha",45%
same,plant injury at 31 g/ha,"[9]; 31 g ai/ha, preemergence",0%
same,plant injury at 62 g/ha,"[9]; 62 g ai/ha, preemergence",30%
same,plant injury at 125 g/ha,"[9]; 125 g ai/ha, preemergence",60%
same,plant injury at 16 g/ha,"[9]; Preemergence, 16 g ai/ha",0%
same,pest or weed control at 31 g/ha,"[10]; 31 g ai/ha, preemergence",20%
same,pest or weed control at 62 g/ha,"[10]; 62 g ai/ha, preemergence",85%
same,pest or weed control at 125 g/ha,"[10]; 125 g ai/ha, preemergence",85%
same,pest or weed control at 16 g/ha,"[10]; Preemergence, 16 g ai/ha",0%
same,pest or weed control at 31 g/ha,"[11]; 31 g ai/ha, preemergence, scale 0 to 100",95%
same,pest or weed control at 62 g/ha,"[11]; 62 g ai/ha, preemergence, scale 0 to 100",95%
same,pest or weed control at 125 g/ha,"[11]; 125 g ai/ha, preemergence, scale 0 to 100",100%
same,pest or weed control at 16 g/ha,"[11]; Preemergence, 16 g ai/ha, scale 0 to 100 (0 no effect, 100 complete control)",65%
same,plant injury at 31 g/ha,"soybean (Glycine max); 31 g ai/ha, preemergence",65%
same,plant injury at 62 g/ha,"soybean (Glycine max); 62 g ai/ha, preemergence",85%
same,plant injury at 125 g/ha,"soybean (Glycine max); 125 g ai/ha, preemergence",95%
same,plant injury at 16 g/ha,"soybean (Glycine max); Preemergence, 16 g ai/ha",35%
same,pest or weed control at 31 g/ha,"[12]; 31 g ai/ha, preemergence",95%
same,pest or weed control at 62 g/ha,"[12]; 62 g ai/ha, preemergence",100%
same,pest or weed control at 125 g/ha,"[12]; 125 g ai/ha, preemergence",100%
same,pest or weed control at 16 g/ha,"[12]; Preemergence, 16 g ai/ha",55%
same,pest or weed control at 31 g/ha,"[13]; 31 g ai/ha, preemergence",40%
same,pest or weed control at 62 g/ha,"[13]; 62 g ai/ha, preemergence",65%
same,pest or weed control at 125 g/ha,"[13]; 125 g ai/ha, preemergence",85%
same,pest or weed control at 16 g/ha,"[13]; Preemergence, 16 g ai/ha",15%
same,"Corn plant response rating (crop injury, 0 = no effect, 100 = complete kill) at 31 g/ha","corn (Zea mays); 31 g ai/ha, preemergence",40%
same,"Corn plant response rating (crop injury, 0 = no effect, 100 = complete kill) at 62 g/ha","corn (Zea mays); 62 g ai/ha, preemergence",45%
same,"Corn plant response rating (crop injury, 0 = no effect, 100 = complete kill) at 125 g/ha","corn (Zea mays); 125 g ai/ha, preemergence",85%
same,"Corn plant response rating (crop injury, 0 = no effect, 100 = complete kill) at 16 g/ha","corn (Zea mays); Preemergence, 16 g ai/ha",5%
same,pest or weed control at 31 g/ha,"[14]; 31 g ai/ha, preemergence",65%
same,pest or weed control at 62 g/ha,"[14]; 62 g ai/ha, preemergence",85%
same,pest or weed control at 125 g/ha,"[14]; 125 g ai/ha, preemergence",100%
same,pest or weed control at 16 g/ha,"[14]; Preemergence, 16 g ai/ha",25%
same,pest or weed control at 16 g/ha,kochia (Kochia scoparia); 16 g ai/ha,90%
same,pest or weed control at 31 g/ha,kochia (Kochia scoparia); 31 g ai/ha,95%
same,pest or weed control at 62 g/ha,kochia (Kochia scoparia); 62 g ai/ha,100%
same,pest or weed control at 125 g/ha,kochia (Kochia scoparia); 125 g ai/ha,100%
same,pest or weed control at 16 g/ha,[15]; 16 g ai/ha,60%
same,pest or weed control at 31 g/ha,[15]; 31 g ai/ha,80%
same,pest or weed control at 62 g/ha,[15]; 62 g ai/ha,80%
same,pest or weed control at 125 g/ha,[15]; 125 g ai/ha,90%
same,pest or weed control at 31 g/ha,[16]; 31 g ai/ha,55%
same,pest or weed control at 62 g/ha,[16]; 62 g ai/ha,60%
same,pest or weed control at 125 g/ha,[16]; 125 g ai/ha,60%
same,pest or weed control at 16 g/ha,[17]; 16 g ai/ha,5%
same,pest or weed control at 31 g/ha,[17]; 31 g ai/ha,5%
same,pest or weed control at 62 g/ha,[17]; 62 g ai/ha,10%
same,pest or weed control at 125 g/ha,[17]; 125 g ai/ha,10%
same,pest or weed control at 31 g/ha,[18]; 31 g ai/ha,75%
same,pest or weed control at 62 g/ha,[18]; 62 g ai/ha,90%
same,pest or weed control at 125 g/ha,[18]; 125 g ai/ha,85%
same,plant injury at 31 g/ha,[19]; 31 g ai/ha,0%
same,plant injury at 62 g/ha,[19]; 62 g ai/ha,5%
same,plant injury at 125 g/ha,[19]; 125 g ai/ha,0%
